Measurements from paper PMC3735166, “Comparative Studies on Acetylcholinesterase Characteristics between the Aphids, Sitobion avenae and Rhopalosiphum padi” (Journal of Insect Science, 2013).
Structures can show the parent of a compound that is named as a salt. Where two headings read alike, the source gives them in different places.

How the values were obtained:
[1] = molecular target: T1, crude extract AChE from R. padi (Rhopalosiphum padi, UniProt Q6BCH8); test: Substrate specificity and kinetic analysis of crude extract AChE from R. padi; type: biochemical; conditions: compound as substrate, 30°C; for Km: read-out: Km ± SE
Method: (§1) Step 1: Preparation of crude extract. About 1.0 g apterous adults were homogenized in 10 mL ice-cold 0.1 M phosphate buffer (pH 7.5), containing 0.2 M NaCl and 0.5 % (v/v) Triton X-100 and three protease inhibitors (1 mM EDTA-Na2, 1 µM leupeptin, and 10 µM PMSF). The homogenate was filtered through cheesecloth and then centrifuged at 41,000 g, 4°C for 1 h. The supernatant, after being filtered through glass wool, was used as crude extract.
(§2) AChE activities were determined according to the method of Ellman et al. ([1961]) modified by Gao ([1987]), using ATCh, PrTCh, MeTCh and BuTCh as substrates. The AChE activities were determined at 6 substrate concentrations from 0.15625 to 5 mM based on the reaction at 30°C for 15 min and the reaction was stopped by the addition of 900 µL, DTNB (0.125 mM) with 40% ethanol, then the optical density (OD) was measured at 412 nm by spectrophotometer (Lambda Bio 40).
(§3) All statistical tests were performed by using SAS computer program (USA). Values of Michalelis-Menten constants (Km) and maximal velocities (Vmax) for four substrates were calculated by Enzfitter software (Biosoft, http://www.biosoft.com/).

[2] = molecular target: T2, crude extract AChE from S. avenae (Sitobion avenae, UniProt Q66S75); test: Substrate specificity and kinetic analysis of crude extract AChE from S. avenae; type: biochemical; conditions: compound as substrate, 30°C; for Km: read-out: Km ± SE
T2 sequence (Q66S75 23-664): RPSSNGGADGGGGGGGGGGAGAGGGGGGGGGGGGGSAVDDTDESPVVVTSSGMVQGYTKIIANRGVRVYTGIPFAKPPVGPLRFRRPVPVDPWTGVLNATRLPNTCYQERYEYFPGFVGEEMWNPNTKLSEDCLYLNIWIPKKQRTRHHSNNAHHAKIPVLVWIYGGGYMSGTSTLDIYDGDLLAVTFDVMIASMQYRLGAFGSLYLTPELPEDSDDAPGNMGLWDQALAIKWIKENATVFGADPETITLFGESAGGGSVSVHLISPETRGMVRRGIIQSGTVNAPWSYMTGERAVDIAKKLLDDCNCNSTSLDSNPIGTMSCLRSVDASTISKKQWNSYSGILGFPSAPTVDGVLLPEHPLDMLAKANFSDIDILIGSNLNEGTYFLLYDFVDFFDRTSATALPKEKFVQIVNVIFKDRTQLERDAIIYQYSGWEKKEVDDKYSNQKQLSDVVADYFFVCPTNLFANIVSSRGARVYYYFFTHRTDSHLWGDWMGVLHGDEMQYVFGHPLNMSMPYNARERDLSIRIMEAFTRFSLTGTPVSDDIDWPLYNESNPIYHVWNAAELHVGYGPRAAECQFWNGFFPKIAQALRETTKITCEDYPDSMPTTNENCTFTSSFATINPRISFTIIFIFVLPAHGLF
Method: as §1, §2, §3

[3] = molecular target: T3, purified AChE from R. padi (Rhopalosiphum padi, UniProt Q6BCH8); test: Substrate specificity and kinetic analysis of purified AChE from R. padi; type: biochemical; conditions: for Vmax ± SE / Km: compound as substrate, 30°C; for Km: read-out: Km ± SE
Method: (§4) Purification of AChE from both aphid species was performed by affinity chromatography using procainamide as the affinity ligand. The procedure used in this study was according to the method of Gao and Zhu ([2001]) with some modifications, as follows:
as §1
(§5) Step 2: Chromatography on sephadex G-25. […] The fractions (5 ml each) were collected at the flow rate of 45 mL/h at 4°C. All the fractions containing the AChE activity were collected as the enzyme resource for the next step.
(§6) Step 3: Procainamide affinity chromatography and removal of procainamide and condensation. The procainamide-based AChE affinity column was made according to the instructions from the manufacturer. […] The collected AChE dialyzed against 0.05 M, pH 7.5 phosphate buffer three times for 3 h. The enzyme was stored at 4°C and used as the enzyme source.
as §2, §3

[4] = molecular target: T4, purified AChE from S. avenae (Sitobion avenae, UniProt Q66S75); test: Substrate specificity and kinetic analysis of purified AChE from S. avenae; type: biochemical; conditions: for Vmax ± SE / Km: compound as substrate, 30°C; for Km: read-out: Km ± SE
T4 sequence (Q66S75 23-664): T2 sequence (Q66S75 23-664)
Method: as §4, §1, §5, §6, §2, §3

[5] = molecular target: T3, purified AChE from R. padi; test: Substrate specificity and kinetic analysis of purified AChE from R. padi; type: biochemical; conditions: substrate 15 mM
[6] = molecular target: T1, crude extract AChE from R. padi; test: Inhibition of crude extract AChE from R. padi (Ellman method, 5 min preincubation); type: biochemical; conditions: for inhibitory percentage of AChE specific activity: inhibitor 10 µM
Method: as §1, §2
(§7) The value of median inhibition concentration (I50) for the inhibitors were calculated based on log (inhibitor concentration) vs. probit (percentage of inhibition) linear regression.

[7] = molecular target: T2, crude extract AChE from S. avenae; test: Inhibition of crude extract AChE from S. avenae (Ellman method, 5 min preincubation); type: biochemical; conditions: for I50 times higher in S. avenae than in R. padi: ratio of I50 values of Table 4
Method: as §1, §2, §7

[8] = molecular target: T3, purified AChE from R. padi; test: Inhibition of purified AChE from R. padi (Ellman method, 5 min preincubation); type: biochemical; conditions: for inhibitory percentage of AChE specific activity: inhibitor 10 µM
Method: as §4, §1, §5, §6, §2, §7

[9] = molecular target: T1, crude extract AChE from R. padi; conditions: comparison of the two aphid species; ref Lu and Gao 2009; cited from earlier work
S. avenae and R. padi = conditions: comparison of the two aphid species, ref Lu and Gao 2009, cited from earlier work
[10] = molecular target: T4, purified AChE from S. avenae; test: Inhibition of purified AChE from S. avenae (Ellman method, 5 min preincubation); type: biochemical
Method: as §4, §1, §5, §6, §2, §7

[11] = preincubation 5 min at 30°C, mean of three determinations, read-out: I50 ± SE (median inhibition concentration)
[12] = S. avenae, preincubation 5 min at 30°C, mean of three determinations, read-out: I50 ± SE (median inhibition concentration)

T1 sequence (Q6BCH8 18-652): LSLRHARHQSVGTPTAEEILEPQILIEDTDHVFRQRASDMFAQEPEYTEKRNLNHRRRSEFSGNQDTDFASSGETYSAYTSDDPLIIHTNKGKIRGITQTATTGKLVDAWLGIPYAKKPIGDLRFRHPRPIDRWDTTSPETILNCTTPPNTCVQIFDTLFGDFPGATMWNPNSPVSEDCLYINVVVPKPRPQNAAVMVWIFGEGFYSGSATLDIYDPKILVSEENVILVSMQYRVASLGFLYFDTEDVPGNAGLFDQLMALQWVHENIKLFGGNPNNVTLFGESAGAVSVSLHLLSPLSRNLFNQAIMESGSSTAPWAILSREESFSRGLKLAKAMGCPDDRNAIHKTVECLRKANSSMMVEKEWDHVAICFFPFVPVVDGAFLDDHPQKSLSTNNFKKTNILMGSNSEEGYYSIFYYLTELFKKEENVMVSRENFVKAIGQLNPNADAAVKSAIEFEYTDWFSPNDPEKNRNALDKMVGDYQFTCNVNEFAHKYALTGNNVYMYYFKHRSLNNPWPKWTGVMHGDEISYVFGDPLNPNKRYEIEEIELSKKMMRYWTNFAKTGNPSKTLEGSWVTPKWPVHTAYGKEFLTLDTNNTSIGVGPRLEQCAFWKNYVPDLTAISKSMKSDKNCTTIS
T3 sequence (Q6BCH8 18-652): as above

| SMILES | Vmax ± SE [1] [nmol/min/mg protein] | Km [1] [µM] | Vmax ± SE [2] [nmol/min/mg protein] | Km [2] [µM] | Vmax ± SE [3] [nmol/min/mg protein] | Km [3] [µM] | Vmax ± SE [4] [nmol/min/mg protein] | Km [4] [µM] | other results |
| --- | --- | --- | --- | --- | --- | --- | --- | --- | --- |
| CC(=O)SC(C)C[N+](C)(C)C (stereo not drawn) [MeTCh, acetyl-(β-methyl) thiocholine] | 1.10 ± 0.07 | 290 ± 80 | 1.01 ± 0.10 | 400 ± 140 | 31.58 ± 1.03 | 2450 ± 170 | 118.32 ± 5.64 | 2230 ± 230 | substrate concentration at which substrate inhibition was observed [3]: > 10 mM; substrate concentration at which substrate inhibition was observed [4]: > 10 mM; specific activity of purified AChE [5]: 17.7 nmol/min/mg |
| CNC(=O)Oc1ccc2c(c1)[C@]1(C)CCN(C)[C@@H]1N2C [Eserine, eserine hemisulfate salt] |  |  |  |  |  |  |  |  | inhibitory percentage of AChE specific activity [6]: about 50%; I50 times higher in S. avenae than in R. padi [7]: 4.1 times; inhibitory percentage of AChE specific activity [8]: more than 90% |
| CCC(=O)SCC[N+](C)(C)C.[I-] [PrTCh, propionylthiocholine iodide] | 0.76 ± 0.03 | 180 ± 40 | 1.04 ± 0.15 | 570 ± 260 | 24.24 ± 0.30 | 850 ± 30 | 94.01 ± 4.41 | 930 ± 120 |  |
| Cc1nc(N(C)C)nc(OC(=O)N(C)C)c1C [Pirimicarb] |  |  |  |  |  |  |  |  | sensitivity of AChE to pirimicarb, R. padi versus S. avenae [9]: significantly higher in R. padi than in S. avenae; susceptibility / tolerance to pirimicarb in bioassays, S. avenae versus R. padi (S. avenae and R. padi): higher for S. avenae than for R. padi; susceptibility / tolerance to pirimicarb in bioassays, S. avenae versus R. padi (S. avenae and R. padi; listed as pirimicarb): R. padi was more susceptible than S. avenae |
| CC(=O)SCC[N+](C)(C)C.[I-] [ATCh, Acetylthiocholine iodide] | 1.27 ± 0.05 | 360 ± 50 | 1.16 ± 0.11 | 650 ± 190 | 37.58 ± 1.01 | 2180 ± 130 | 152.75 ± 3.63 | 2280 ± 120 | substrate concentration at which substrate inhibition was observed [3]: > 10 mM; substrate concentration at which substrate inhibition was observed [4]: > 10 mM; specific activity of purified AChE [5]: 20.3 nmol/min/mg |
| CCCC(=O)SCC[N+](C)(C)C.[I-] [BuTCh, butyrylthiocholine iodide] | 4.12 ± 1.34 | 5340 ± 2790 | 11.88 ± 3.88 | 15100 ± 6210 | 2.17 ± 0.09 | 670 ± 80 | 9.09 ± 0.14 | 1690 ± 60 |  |
| C=CC[N+](C)(C)c1ccc(CCC(=O)CCc2ccc([N+](C)(C)CC=C)cc2)cc1.[Br-].[Br-] [BW284C51, 1,5-bis(4-allyldimethylammoniumphenyl)-pentan-3-one dibromide] |  |  |  |  |  |  |  |  | inhibitory percentage of AChE specific activity [6]: about 50%; IC50 [6, 11]: 9.7 ± 1 µM; IC50 [7, 12]: 24.7 ± 4.9 µM; I50 times higher in S. avenae than in R. padi [7]: 2.5 times; inhibitory percentage of AChE specific activity [8]: > 80%; IC50 [8, 11]: 2.57 ± 0.34 µM; inhibitory percentage of AChE specific activity ([10]; S. avenae, inhibitor 10 µM): > 80%; IC50 [10, 12]: 1 ± 0.13 µM; I50 fold lower in S. avenae than in R. padi ([10]; from I50 values of Table 5): 0.4 fold |
